Residues, ends and D or L forms follow the SMILES beside them.
Experiments:
S. typhimurium 8009 = assay: MIC at salt concentration (Example 3); format: cell-based, Salmonella typhimurium
Description: (§1) To compare the antimicrobial activity of the peptide produced by the method of Example 1, the inventors of the present invention measured the minimum growth inhibitory concentration (MIC), which is minimum concentration of the peptide showing no dissociation of bacterial cells, at salt concentration.
(§2) Specifically, the bacterial strain described in the above Table 2 was cultured in each medium to a mid-log phase. Then, after dilution to bacterial cell concentration of 2×10^5 cells/100 μl, the cells were inoculated to a microtiter plate (NUNC, USA). Thereafter, myxinidin 1, myxinidin 2, or myxinidin 3 peptides which have been synthesized in Example 1 above was diluted, 1/2 times for each, with BSA+150 mM sodium chloride (NaCl) solution, physiological saline (PBS) solution, or 10 mM sodium phosphate (SP) solution in a 96-well plate. After adding the cells to a plate, the cells were cultured for 12 hours at 37° C. By using a microtiter plate reader (Merck Elisa reader, Germany), the absorbance was measured at a wavelength of 600 nm to determine the MIC value of each bacterial strain. As a control group, myxinidin as a mother peptide was subjected to the same processes as above and the MIC value of each bacterial strain was obtained.

S. typhimurium 8013 = assay: MIC at salt concentration (Example 3); format: cell-based, Salmonella typhimurium
Description: as §1, §2

S. typhimurium = assay: MIC at salt concentration (Example 3); format: cell-based, Salmonella typhimurium
Description: as §1, §2

S. aureus 3114 = assay: MIC at salt concentration (Example 3); format: cell-based, Staphylococcus aureus
Description: as §1, §2

S. aureus 3709 = assay: MIC at salt concentration (Example 3); format: cell-based, Staphylococcus aureus
Description: as §1, §2

S. aureus [1] = assay: MIC at salt concentration (Example 3); format: cell-based, Staphylococcus aureus
Description: as §1, §2

L. monocytogenes [2] = assay: MIC at salt concentration (Example 3); format: cell-based, Listeria monocytogenes
Description: as §1, §2

Escherichia coli 1229 = assay: MIC at salt concentration (Example 3); format: cell-based
Description: as §1, §2

P. aeruginosa 3592 = assay: MIC at salt concentration (Example 3); format: cell-based, Pseudomonas aeruginosa
Description: as §1, §2

P. aeruginosa 5018 = assay: MIC at salt concentration (Example 3); format: cell-based, Pseudomonas aeruginosa
Description: as §1, §2

P. aeruginosa [3] = assay: MIC at salt concentration (Example 3); format: cell-based, Pseudomonas aeruginosa
Description: as §1, §2

P. aeruginosa [4] = assay: Anti-biofilm activity (crystal violet); format: cell-based, Pseudomonas aeruginosa
Description: (§3) To compare the antimicrobial activity of the peptide produced by the method of Example 1, the inventors of the present invention measured the biofilm inhibitory concentration value of the peptide showing no dissociation of bacterial cells.
(§4) Specifically, the Gram-negative bacteria and Gram-positive bacteria among the bacterial strains described in the above Table 2 were cultured in each medium to a mid-log phase. Then, after dilution to bacterial cell concentration of 5×10^5 cells/100 μl, the cells were inoculated to a microtiter plate (NUNC, USA). Thereafter, myxinidin 1, myxinidin 2, or myxinidin 3 peptides which have been synthesized in Example 1 above was diluted, 1/10 times for each, with physiological saline (PBS) solution in a 96-well plate. After adding the cells to a plate, the cells were cultured for 12 hours at 37° C. After removing the supernatant, the cells were fixed with 100% methanol and reacted for 2 hours with Crystal violet staining solution followed by rinsing for 3 times. Then, after dissolving in 95% ethanol, the absorbance was measured at a wavelength of 595 nm by using a microtiter plate reader (Merck Elisa reader, Germany) to determine the biofilm inhibitory concentration value of each bacterial strain. As a control group, myxinidin as a mother peptide was subjected to the same processes as above and the biofilm inhibitory concentration value of each bacterial strain was obtained.

S. aureus [5] = assay: Anti-biofilm activity (crystal violet); format: cell-based, Staphylococcus aureus
Description: as §3, §4

L. monocytogenes [6] = assay: Anti-biofilm activity (crystal violet); format: cell-based, Listeria monocytogenes
Description: as §3, §4

in vitro = format: cell-based; details: human, NHK cells (normal human keratinocytes)
Description: To determine the cytotoxicity of the peptide produced by the method of Example 1 in normal cell line, toxicity was measured by using NHK cells (Normal Human Keratinocyte cells).
Specifically, NHK cells which have been cultured in Epilife medium with 60 μM calcium (Gibco, USA) containing 10% HKGS (Human Keratinocyte Growth Supplement) (Gibco, USA) were aliquoted in a 96-well plate to have 1×10^4 cells per well. After culturing them for 24 hours, the cells were subjected to a treatment with myxinidin, myxinidin 1, myxinidin 2, or myxinidin 3 peptide, each at concentration of 3.125, 6.25, 12.5, or 25.0 μM/well, followed by reaction for 24 hours in a 5% CO2 incubator. After the culture, a reaction solution containing 5 mg/ml MTT (Thiazolyl Blue Tetrazolium Bromide) dissolved in physiological saline (PBS) was added in an amount of 20 μl to each well and allowed to react for 4 hours. After that, the supernatant was removed, and, by dissolving MTT crystals that are formed by adding 200 μl of DMSO, the absorbance at 560 nm was measured to determine the cell survival ability.

[7] = NaCl (BSA+150 mM sodium chloride)

## CC[C@H](C)[C@H](NC(=O)[C@H](Cc1c[nH]c2ccccc12)NC(=O)[C@H](CCCCN)NC(=O)[C@@H](NC(=O)[C@@H](N)CCCCN)[C@@H](C)CC)C(=O)N[C@@H](CC(C)C)C(=O)N[C@@H](CCCCN)C(=O)N[C@@H](Cc1ccc(O)cc1)C(=O)N[C@@H](Cc1c[nH]c2ccccc12)C(=O)N[C@@H](CCCCN)C(=O)N[C@@H](Cc1c[nH]c2ccccc12)C(=O)N[C@@H](CO)C(N)=O [Myxinidin 2, KIKWILKYWKWS-NH2] (H-KIKWILKYWKWS-NH2; N-terminus assumed)
S. typhimurium 8009; [7]
  Antimicrobial activity (MIC) according to salt concentration: 8
S. typhimurium 8009; PBS
  Antimicrobial activity (MIC) according to salt concentration: 4
S. typhimurium 8009; SP (10 mM sodium phosphate)
  Antimicrobial activity (MIC) according to salt concentration: 4
S. typhimurium 8013; [7]
  Antimicrobial activity (MIC) according to salt concentration: 32
S. typhimurium 8013; PBS
  Antimicrobial activity (MIC) according to salt concentration: 8
S. typhimurium 8013; SP (10 mM sodium phosphate)
  Antimicrobial activity (MIC) according to salt concentration: 4
S. typhimurium; [7]
  Antimicrobial activity (MIC) according to salt concentration: 2
S. typhimurium; PBS
  Antimicrobial activity (MIC) according to salt concentration: 4
S. typhimurium; SP (10 mM sodium phosphate)
  Antimicrobial activity (MIC) according to salt concentration: 2
S. aureus 3114; [7]
  Antimicrobial activity (MIC) according to salt concentration: >32
S. aureus 3114; PBS
  Antimicrobial activity (MIC) according to salt concentration: 16
S. aureus 3114; SP (10 mM sodium phosphate)
  Antimicrobial activity (MIC) according to salt concentration: 8
S. aureus 3709; [7]
  Antimicrobial activity (MIC) according to salt concentration: 8
S. aureus 3709; PBS
  Antimicrobial activity (MIC) according to salt concentration: 8
S. aureus 3709; SP (10 mM sodium phosphate)
  Antimicrobial activity (MIC) according to salt concentration: 4
S. aureus [1]; [7]
  Antimicrobial activity (MIC) according to salt concentration: 0.25
S. aureus [1]; PBS
  Antimicrobial activity (MIC) according to salt concentration: 1
S. aureus [1]; SP (10 mM sodium phosphate)
  Antimicrobial activity (MIC) according to salt concentration: 1
L. monocytogenes [2]; [7]
  Antimicrobial activity (MIC) according to salt concentration: 4
L. monocytogenes [2]; PBS
  Antimicrobial activity (MIC) according to salt concentration: 8
L. monocytogenes [2]; SP (10 mM sodium phosphate)
  Antimicrobial activity (MIC) according to salt concentration: 8
Escherichia coli 1229; [7]
  Antimicrobial activity (MIC) according to salt concentration: 8
Escherichia coli 1229; PBS
  Antimicrobial activity (MIC) according to salt concentration: 2
Escherichia coli 1229; SP (10 mM sodium phosphate)
  Antimicrobial activity (MIC) according to salt concentration: 2
P. aeruginosa 3592; [7]
  Antimicrobial activity (MIC) according to salt concentration: 16
P. aeruginosa 3592; PBS
  Antimicrobial activity (MIC) according to salt concentration: 8
P. aeruginosa 3592; SP (10 mM sodium phosphate)
  Antimicrobial activity (MIC) according to salt concentration: 8
P. aeruginosa 5018; [7]
  Antimicrobial activity (MIC) according to salt concentration: 16
P. aeruginosa 5018; PBS
  Antimicrobial activity (MIC) according to salt concentration: 4
P. aeruginosa 5018; SP (10 mM sodium phosphate)
  Antimicrobial activity (MIC) according to salt concentration: 2
P. aeruginosa [3]; [7]
  Antimicrobial activity (MIC) according to salt concentration: 8
P. aeruginosa [3]; PBS
  Antimicrobial activity (MIC) according to salt concentration: 4
P. aeruginosa [3]; SP (10 mM sodium phosphate)
  Antimicrobial activity (MIC) according to salt concentration: 8
P. aeruginosa [4]; peptide 0.25 μM
  Biofilm forming ability: 100%
P. aeruginosa [4]; peptide 0.5 μM
  Biofilm forming ability: 98%
P. aeruginosa [4]; peptide 1 μM
  Biofilm forming ability: 95%
P. aeruginosa [4]; peptide 2 μM
  Biofilm forming ability: 83%
P. aeruginosa [4]; peptide 4 μM
  Biofilm forming ability: 29%
P. aeruginosa [4]; peptide 8 μM
  Biofilm forming ability: 13%
P. aeruginosa [4]; peptide 16 μM
  Biofilm forming ability: 5%
P. aeruginosa [4]; peptide 32 μM
  Biofilm forming ability: 5%
S. aureus [5]; peptide 0.25 μM
  Biofilm forming ability: 100%
S. aureus [5]; peptide 0.5 μM
  Biofilm forming ability: 97%
S. aureus [5]; peptide 1 μM
  Biofilm forming ability: 97%
S. aureus [5]; peptide 2 μM
  Biofilm forming ability: 97%
S. aureus [5]; peptide 4 μM
  Biofilm forming ability: 93%
S. aureus [5]; peptide 8 μM
  Biofilm forming ability: 89%
S. aureus [5]; peptide 16 μM
  Biofilm forming ability: 24%
S. aureus [5]; peptide 32 μM
  Biofilm forming ability: 15%
L. monocytogenes [6]; peptide 0.25 μM
  Biofilm forming ability: 100%
L. monocytogenes [6]; peptide 0.5 μM
  Biofilm forming ability: 100%
L. monocytogenes [6]; peptide 1 μM
  Biofilm forming ability: 100%
L. monocytogenes [6]; peptide 2 μM
  Biofilm forming ability: 100%
L. monocytogenes [6]; peptide 4 μM
  Biofilm forming ability: 99%
L. monocytogenes [6]; peptide 8 μM
  Biofilm forming ability: 93%
L. monocytogenes [6]; peptide 16 μM
  Biofilm forming ability: 45%
L. monocytogenes [6]; peptide 32 μM
  Biofilm forming ability: 33%
In vitro
  viability at 24 h, 3.125 µM: 100%
  viability at 24 h, 6.25 µM: 100%
  viability at 24 h, 12.5 µM: 98%
  viability at 24 h, 25 µM: 75%

Source: US10919935B2, “Antimicrobial peptide derived from myxinidin peptide and uses thereof” (INDUSTRY-ACADEMIC COOPERATION FOUNDATION, CHOSUN UNIVERSITY, priority 2015, dated 2021)
